The source of these data is patent US8247613B2, “Methods and compositions for the synergistic activation of latent HIV” (The J. David Gladstone Institutes, priority 2006, dated 2012).

The subject of one series is latent HIV expression. Particulars: more potent than prostratin; cited from earlier work.
The conditions of series [1]: cited from earlier work.
The next series relates to J-Lat6.3kRed2 cells. Briefly: Cell viability assay (flow cytometry light scatter), J-Lat6.3kRed2 cells. It counts as cell-based. The procedure: (§1) Following stimulation, cells were cultured for 16 hours at 37° C. 90% humidity, 5% CO2. Cells were then analyzed by flow cytometry for viability.
(§2) Cells were scored as viable if they were detected in a characteristically “live” region of light scatter and defraction as measured by flow cytometry.
(§3) As described herein, it is known in the art that high concentrations of prostratin exert some toxic effects on cells. Thus, using the same experimental set-up as described in Example 2, above, cell viability was determined. Cell viability were quantitated as described above. Using J-Lat 6.3 cells and 8.4 T-cells, it was observed that 2 μM prostratin induced cell death in about 50% of the cells. […] In this experiment, cells were incubated with prostratin for about 20 hours, whereas J-Lat 6.3 cells and 8.4 T-cells (in FIGS. 2A and 2B) were incubated with prostratin for 36 hours.
As described in Example 3 for TSA, the effect of valproic acid on blocking prostratin-induced cell death was analyzed using the same experimental set-up as described in Example 4.

Series [2] deals with latent HIV expression in J-Lat6.3kRed2 cells. The series is classed as cell-based.
Method: In a similar experiment, J-Lat6.3kRed2 cells, a modified cell line derived from J-Lat6.3 containing an integrated kB-DsRed2 reporter, was used. J-Lat6.3kRed2 cells were counted and adjusted to 1×10^6 cells/ml. 80 μl aliquots were pipetted in a 96-well u-bottomed plate. Two-fold serial dilutions of 4, 2, and 1 μM trichostatin A (TSA) were made and added to the cells at final concentrations of 400 nM, 200 nM, and 100 nM, respectively. Three-fold serial dilutions of 100, 33, 11, 3.7 μM prostratin were made and added to cells at final concentrations of 10 μM, 3.3 μM, 1.1 μM, and 0.37 μM (0.4 μM in FIG. 1C), respectively. Samples were mixed by pipetting, returned to a 37° C. incubator with 5% CO2 and 90% humidity for 20 hours, HIV-LTR-driven expression of GFP was assessed by flow cytometry as described above.
In order to test a possible synergistic effect of additional histone deacetylase inhibitors, the effect of valproic acid in combination with prostratin was analyzed. J-Lat6.3kRed2 cells were adjusted to 1×10^6 cells/ml. 80 μl cell aliquots were pipetted in a 96-well u-bottomed plate. […] HIV-LTR-driven expression of GFP was assessed by flow cytometry as described above.
In series [3] the test system is latent HIV expression in J-Lat 8.4 T-cells. Briefly: HIV-LTR-driven expression of GFP (flow cytometry) in J-Lat 8.4 T-cells. It counts as cell-based. Particulars: 16 hours; for activation of latent HIV expression (GFP-positive cells): J-Lat 8.4 T-cells. How it is done: (§4) J-Lat 6.3, J-Lat 8.4 T-cells, and J-Lat 9.2 cells are Jurkat T cell lines containing integrated but transcriptionally latent HIV proviruses. These J-Lat cells contain wild-type Tat and TAR and appear to be highly representative of the latently infected cells present in vivo (Williams et al., 2004, J Biol Chem 279(40):42008-42017).
(§5) J-Lat 6.3 T cells, J-Lat 8.4 T-cells and J-Lat 9.2 T cells were obtained from Jordan et al., (Jordan et al., 2003, EMBO J 22(8):1868-1877). J-Lat cells were cultured in RPMI supplemented with 10% fetal calf serum (FCS) and penicillin/streptomycin and L-glutamine described (Williams et al., 2004, J Biol Chem 279(40):42008-42017; Williams et al., 2006, EMBO J 25:139-149).
(§6) The J-Lat T-cell clones used herein are infected with full-length HIV proviruses and contain the Aequorea victoria green fluorescent protein (GFP) gene in lieu of Net thus permitting epifluorescence monitoring of viral transcriptional activity. Under basal conditions, little or no GFP expression is detected; however, transcriptional activation of the latent provirus leads to GFP expression, which can be detected at the single-cell level by flow cytometry. Flow cytometry analysis and FACS was essentially performed as described (Williams et al., 2004, J Biol Chem 279(40):42008-42017).
(§7) Cells were analyzed for GFP-fluorescence and general viability characteristics on a FACSCalibur flow cytometer (Becton Dickinson). Data were analyzed with FlowJo (Treesoft) flow cytometry analysis software.
(§8) J-Lat 6.3 and 8.4 T-cells cultured in RPMI supplemented with 10% fetal calf serum (FCS) and penicillin/streptomycin were counted and adjusted to 1×10^6 cells/ml. 80 μl aliquots of J-Lat 6.3 and 8.4 T-cells, respectively, were pipetted in a 96-well u-bottomed plate. […] Then HIV-LTR-driven expression of GFP was assessed by flow cytometry using a Beckton Dickenson FACScalibur as described above. […] Cells with greater GFP fluorescence than a non-GFP expressing Jurkat control cells were considered GFP-positive.

The subject of a further series is J-Lat 6.3 cells. Briefly: Cell viability assay (flow cytometry light scatter), J-Lat 6.3 cells. It counts as cell-based. How it is done:
as §1, §2, §3

The test system of series [4] is latent HIV expression in J-Lat 6.3 cells. In words: Tat transfection assay, latent HIV-driven GFP expression in J-Lat 6.3 cells. Particulars: for effect on Tat-induced latent HIV-driven expression of GFP: coadministration with Tat (FLAG-Tat transfected cells), 16 hours, J-Lat 6.3 cells (FIG. 5). It counts as cell-based. How it is done: 10^6 J-Lat 6.3 cells cultured in RPMI+10% fetal calf serum (FCS) and penicillin/streptomycin were pelleted by centrifugation and resuspended in 0.4 mL RPMI without serum. Cell suspension was mixed with 1 μg of pMACS-kk H2kk expression vector DNA (Miltenyi), and 10 μg of pCMV4 (Andersson et al., 1989, J Biol Chem 264 (14):8222-8229), or 10 μg pCMV4-FLAG-Tat expression vector (gift of Eric Verdin), transferred to a 0.4 cm gap electroporation cuvette (Stratagene), and electroporated at 975 μF, […] for ˜25×10^−3 seconds. Electroporated cells were resuspended in 4 mL medium, and returned to cell culture for 48 hours. 90 μl aliquots of each sample were distributed to U-bottomed 96-well plates and 10 μl of 200 ng/mL TNF-α (Biosource), 10 μl of 1 mM Trichostatin A (Biomol), or 10 μl of RPMI. For 30′-pulse TNF-α stimulation experiments, 10 μl of 200 ng/mL TNF-α was added to 90 μl cell suspension for 30 minutes, cells were transferred to a V-bottomed 96 well plate and centrifuged at […] for 3 minutes. Supernatant was removed and replaced, and procedure was repeated 2×. Cells were resuspended in 100 μl fresh RPMI with 10% serum and penicillin/streptomycin. 16 hours after treatment, cells were pelleted by centrifugation, and resuspended in 50 μl PBS+1:100 dilution of streptavidin-conjugated anti-H2kk antibody. Samples were incubated 10 minutes, diluted in 200 μl PBS, pelleted by centrifugation, and supernatant removed. […] Samples were analyzed by flow cytometry using a Beckton Dickinson FACSCalibur. Cells were analyzed using FlowJo (TreeSoft) flow cytometry analysis software. Live cells were identified by characteristic light scatter and defraction and exclusively analyzed. Cells with APC fluorescence greater that untransfected cells stained with biotin-APC were considered to be H2kk-positive, and to have been successfully transfected. […]

In series [5] the test system is latent HIV expression in J-Lat 9.2 cells. Briefly: Tat transfection assay, latent HIV-driven GFP expression in J-Lat 9.2 cells. The series is classed as cell-based. Particulars: FLAG-Tat transfected J-Lat 9.2 cells (FIG. 6); result similar to Example 6.
The subject of series [6] is latent HIV expression in J-Lat 6.3 cells. In words: HIV-LTR-driven expression of GFP (flow cytometry) in J-Lat 6.3 cells. Particulars: 16 hours; for activation of latent HIV expression (GFP-positive cells): J-Lat 6.3 cells. It counts as cell-based. How it is done:
as §4, §5, §6, §7, §8

Another series has as its system J-Lat 8.4 T-cells. Briefly: Cell viability assay (flow cytometry light scatter), J-Lat 8.4 T-cells. It counts as cell-based. The procedure: as §1, §2, §3
For series [7] the following is noted: concentration of >500 nM for more than 2 days; cited from earlier work.
Setting [8] is: co-administration of 100 nM TSA with 2 μM prostratin.

For `CC1=C[C@H]2[C@@]3(O)[C@H](C)C[C@]4(OC(=O)Cc5ccccc5)C([C@@H]3C=C(CO)C[C@]2(O)C1=O)C4(C)C` (stereo partly shown) [DPP, 12-deoxyphorbol 13-phenylacetate], the “potency relative to prostratin” value in the series with latent HIV expression was 20-40 fold.
For `CCCC(CCC)C(=O)O` [valproic acid, 2-propylpentanoic acid], the “time of peak serum levels” value in series [1] (after a single oral dose) was 1 to 4 h. For the same compound, the serum half-life in [1] (in vivo) was 6 to 16 h. In addition, in series [1] (oral), the “absorption after oral administration” value is “rapidly absorbed”. In addition, the “effect on prostratin-induced cell death” value with J-Lat6.3kRed2 cells (valproic acid at all tested concentrations (0.3-3 mM), prostratin 10 μM, J-Lat6.3kRed2 cells (FIG. 4)) is “blocked prostratin-induced cell death”. For the same compound, the “potentiation of the effect of prostratin on latent HIV expression” value in series [2] (valproic acid 0.3 mM with prostratin 0.37 μM, 18 hours, J-Lat6.3kRed2 cells (FIG. 3)) is 6-7 fold.
With `CC(/C=C/C(=O)NO)=C\[C@@H](C)C(=O)c1ccc(N(C)C)cc1` [TSA, [R-(E,E)]-7-[4-(Dimethylamino)phenyl]-N-hydroxy-4,6-dimethyl-7-oxo-2,4-heptadienamide], the “activation of latent HIV expression (GFP-positive cells)” value in series [3] (TSA 100 nM administered alone) and in series [6] (TSA 100 nM administered alone) was “no significant effect” in each case. The “potentiation of the effect of prostratin on latent HIV expression” value is given as 6-7 fold in series [3] (TSA 100 nM with prostratin 2 μM, J-Lat 8.4 T-cells (FIG. 1B)) and 5-6 fold in series [6] (TSA 100 nM with prostratin 2 μM, J-Lat 6.3 cells (FIG. 1A)). Besides, the “effect on prostratin-induced cell death” value with J-Lat 6.3 cells (setting [8]) is “almost completely inhibited”; with J-Lat6.3kRed2 cells (TSA with prostratin up to 10 μM, about 20 hours, J-Lat6.3kRed2 cells (FIG. 2C)), “inhibited prostratin-induced cell death”; in the series with J-Lat 8.4 T-cells (setting [8]), “almost completely inhibited”. The “effect on Tat-induced latent HIV-driven expression of GFP” value in series [4] is reported as “strongly enhanced”. Moreover, the “synergistic effect on activation of latent HIV expression” value in series [2] (370 (400) nM TSA in combination with 0.4 μM prostratin, 20 hours, J-Lat6.3kRed2 cells (FIG. 1C)) is given as “about 16 fold”. Also, in [2] (TSA 100-400 nM with prostratin 0.37-10 μM, 20 hours, J-Lat6.3kRed2 cells), the “effect on the activation of latent HIV expression” value is “drastic effect”. In addition, in [5], the “activation of expression of latent HIV (GFP) together with Tat” value is “Synergizes with Tat”.
Take `CC(=O)O[C@@]12C[C@@H](C)[C@@]3(O)[C@@H](C=C(CO)C[C@]4(O)C(=O)C(C)=C[C@@H]34)[C@@H]1C2(C)C` [prostratin, 12-deoxyphorbol 13-acetate]: the “activation of latent HIV expression (GFP-positive cells)” value in series [3] (prostratin 2 μM alone) and in series [6] (prostratin 2 μM alone) was “induced the activation of latent HIV expression” in each case. Moreover, the “prostratin-induced cell death (cells)” value in the series on J-Lat 6.3 cells (2 μM prostratin, incubated 36 hours (FIG. 2A)) is “about 50%”; in the series with J-Lat 8.4 T-cells (2 μM prostratin, incubated 36 hours (FIG. 2B)), “about 50%”. In addition, the “toxicity (growth arrest and cell death)” value in [7] is “substantial growth arrest and cell death”.
Turning to TNF-α, the “expression of latent HIV (GFP)” value in series [4] (30-minute pulse treatment of TNF-α, without Tat, J-Lat 6.3 cells) is recorded as “weak expression”. The “effect on Tat-induced latent HIV-driven expression of GFP” value in series [4] was “strongly enhanced”. Moreover, in series [5], the “activation of expression of latent HIV (GFP) together with Tat” value is given as “Synergizes with Tat”.
